Assay results taken from ChEMBL document CHEMBL1150766, “Synthesis and in vitro biological activity of retinyl retinoate, a novel hybrid retinoid derivative” (Bioorg Med Chem, 2008).
pIC50: −log10 of the molar value. The source made the active and inactive calls. The calls are words filed in the database; no cut-off is given here.

What was measured:
[1] = Stability in human fibroblasts assessed as retention time after 2 days; type: ADME, cell-based; details: fibroblast, 48 h
Fibroblast [2] = assay: Induction of CRABP 2 mRNA expression in human normal fibroblast at 1 uM by […] relative to control; type: functional
[3] = Cytotoxicity against human normal fibroblast after 1 day by MTT assay; type: cell-based; details: 24 h
[4] = target: T1, Retinoic acid receptor alpha (Homo sapiens) (UniProt P10276); assay: Increase in transcriptional activity of RARalpha receptor epressed in human HaCaT cells co-transfected with DR5-tk-CAT reporter plasmid assessed as beta-galactosidase activity by CAT-ELISA; type: cell-based
T1 sequence (whole entry): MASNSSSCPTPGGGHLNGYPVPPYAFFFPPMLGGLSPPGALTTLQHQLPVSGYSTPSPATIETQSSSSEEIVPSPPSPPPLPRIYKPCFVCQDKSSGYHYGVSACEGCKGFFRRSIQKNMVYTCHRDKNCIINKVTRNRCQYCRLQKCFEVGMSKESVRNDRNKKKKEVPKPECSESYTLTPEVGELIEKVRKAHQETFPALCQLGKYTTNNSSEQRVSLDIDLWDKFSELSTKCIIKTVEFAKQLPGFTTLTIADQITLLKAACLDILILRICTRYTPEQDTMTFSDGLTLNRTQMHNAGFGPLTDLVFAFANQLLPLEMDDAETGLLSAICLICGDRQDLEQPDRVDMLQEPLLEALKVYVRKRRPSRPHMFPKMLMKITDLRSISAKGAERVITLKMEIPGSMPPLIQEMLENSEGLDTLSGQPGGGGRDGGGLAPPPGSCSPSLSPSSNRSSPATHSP

[5] = target: Transcription factor Jun (Homo sapiens) (UniProt P05412); assay: Inhibition of AP1 expressed in human HaCaT cells transfected with Coll-CAT reporter gene assessed as collagenase expression by CAT-ELISA; type: cell-based
Fibroblast [6] = assay: Induction of collagen biosynthesis in human normal fibroblast; type: functional, cell-based
HaCaT [7] = assay: Decrease in collagenase expression in Coll-CAT gene transfected human HaCaT cells co-transfected with c-Jun relative to control; type: functional
[8] = Thermal stability at 4 degC after 4 weeks; type: physicochemical; details: 672 h
HaCaT [9] = assay: Decrease in collagenase expression in Coll-CAT gene transfected human HaCaT cells co-transfected with c-Jun and retinoic acid receptor relative to control; type: functional
[10] = Photostability after UV irradiation; type: physicochemical
Fibroblast [11] = assay: Induction of CRABP 2 mRNA expression in human normal fibroblast at 10 uM by […] relative to control; type: functional
[12] = Thermal stability at 40 degC after 4 weeks; type: physicochemical; details: 672 h

Chain of Transcription factor Jun (Homo sapiens) (P05412 whole entry): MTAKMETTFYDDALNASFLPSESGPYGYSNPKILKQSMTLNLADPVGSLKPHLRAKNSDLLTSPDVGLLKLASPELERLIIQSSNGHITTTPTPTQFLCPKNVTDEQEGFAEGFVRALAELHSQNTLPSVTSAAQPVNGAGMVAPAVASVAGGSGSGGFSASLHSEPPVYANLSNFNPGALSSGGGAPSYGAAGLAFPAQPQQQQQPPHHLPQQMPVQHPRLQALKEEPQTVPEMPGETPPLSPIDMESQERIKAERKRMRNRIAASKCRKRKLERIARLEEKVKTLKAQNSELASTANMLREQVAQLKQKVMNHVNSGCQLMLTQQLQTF

Structure (SMILES) | Activity [1] [min] | Activity (Fibroblast [2]) | pIC50 [3] | Activity [4] | Activity [5] | Activity (Fibroblast [6]) | inhibition (INH) (HaCaT [7]) [%] | Stability [8] | inhibition (INH) (HaCaT [9]) [%] | Stability [10] | Activity (Fibroblast [11]) | Activity [12] | Activity [10]
CC1=C(/C=C/C(C)=C/C=C/C(C)=C/COC(=O)/C=C(C)/C=C/C=C(C)/C=C/C2=C(C)CCCC2(C)C)C(C)(C)CCC1 [RETINYLRETINOATE] | 18.94 | 1.56 | 4.40 | Active | Active | Active | 6.7 | Stable | 52 | Stable | 1.75 | – | –
CCCCCCCCCCCCCCCC(=O)OC/C=C(C)/C=C/C=C(C)/C=C/C1=C(C)CCCC1(C)C [VITAMIN A PALMITATE] | – | 1.2 | – | – | – | – | – | – | – | – | 1.4 | – | –
CC1=C(/C=C/C(C)=C/C=C/C(C)=C/C(=O)O)C(C)(C)CCC1 [TRETINOIN] | – | 1.84 | – | – | – | – | 5.4 | – | 64 | – | 2.05 | – | –
CC1=C(/C=C/C(C)=C/C=C/C(C)=C/CO)C(C)(C)CCC1 [RETINOL] | – | 1.4 | 4.60 | Active | – | – | 7.3 | Stable | 33 | – | 1.44 | Not Active | Not Active
